Values of other authors as cited in paper PMC9406037, “Design, Synthesis and Activity of New N^1-Alkyl Tryptophan Functionalized Dendrimeric Peptides against Glioblastoma” (Biomolecules, 2022).

What was measured:
[1] = alpha-tocopherol at ca 4.4 µM
Text: Taking into account structural differences between these two groups of dendrimers, the possible primary mechanism in the DPPH conditions involves hydrogen and electron transfer from the above electron-rich center and to less extent from numerous indole rings. For the same reasons, the highest reductive capabilities (FRAP) were expressed by compound 24. All compounds were very effective in s ...

[2] = tested on: U87MG cells cultured in spheroids; details: 20 µM alone or in combination with iododeoxyuridine (IUdR 1 µM) for 67 h; clonogenicity observed 10 day later
Text: Another important issue which has to be taken into consideration is the time of treatment with potential drugs and mode of action. […] […] However, combined treatment o ...

Cc1c(C)c2c(c(C)c1O)CC[C@@](C)(CCC[C@H](C)CCC[C@H](C)CCCC(C)C)O2 [alpha-tocopherol]
radical scavenging potency relative to Trolox, ABTS model [1]: ~5.5
radical scavenging potency relative to Trolox, DPPH model [1]: slightly lower

trans-3,4,5′-trihydroxystilbene [Resveratrol]
radical scavenging potency relative to Trolox, ABTS model [1]: much more potent than Trolox
radical scavenging potency relative to Trolox, DPPH model [1]: much more potent than Trolox
effect on cell viability or clonogenicity [2]: without any effect on cell viability or clonogenicity
